Data from article PMC11855827, “High-Throughput Screening of Five Compound Libraries for Anthelmintic Activity and Toxicity Leads to the Discovery of Two Flavonoid Compounds” (International Journal of Molecular Sciences, 2025).
“And” between values parts separate entries of the source, which are not always exact repeats. Equal entries are not always repeated. Where two headings read alike, the source gives them in different places.

Test system: C. elegans
[1] = Table S2, C. elegans SS assay, 110 μM, 0 h, averages of 4 data points
[2] = Table S2, C. elegans SS assay, 110 μM, 24 h, averages of 4 data points

## C=C(C)C(=O)O[C@H]1[C@@H]2[C@H](C)C(=O)O[C@@H]2C[C@@H](C)[C@@H]2C=CC(=O)[C@]21C [Arnicolide D]
[1]
  Percentage of motility inhibition 0 h: 16%
[2]
  Percentage of motility inhibition 24 h: 25%

## C=C1CC[C@@]2(C)[C@H]([C@@H]1C)[C@H]1CC[C@@H]3[C@@]4(C)CC[C@H](O)C(C)(C)[C@@H]4CC[C@@]3(C)[C@]1(C)C[C@@H]2O [Arnidiol]
[1]
  Percentage of motility inhibition 0 h: 12%
[2]
  Percentage of motility inhibition 24 h: 57%

## C=C(C(=O)O)[C@@H]1CC[C@@H](C)[C@@H]2CCC(C)=C[C@@H]21 [Artemisic acid]
[1]
  Percentage of motility inhibition 0 h: 1%
[2]
  Percentage of motility inhibition 24 h: 14%

## C[C@@H]1CC[C@H]2[C@@H](C)C(=O)O[C@@H]3O[C@@]4(C)CC[C@@H]1[C@]32OO4 [Artemisinin]
[2]
  Percentage of motility inhibition 24 h: 9% and 0%

## COc1ccc(-c2oc3cc(OC)c(OC)c(O)c3c(=O)c2OC)cc1OC [Artemitin]
[1]
  Percentage of motility inhibition 0 h: 0%
[2]
  Percentage of motility inhibition 24 h: 20%

## CCO[C@H]1O[C@@H]2O[C@@]3(C)CC[C@H]4[C@H](C)CC[C@@H]([C@H]1C)[C@@]24OO3 [Artemotil]
[2]
  Percentage of motility inhibition 24 h: 0% and 2%

## CC1(C)CC[C@]2(C(=O)O[C@@H]3O[C@H](CO[C@@H]4O[C@H](CO)[C@@H](O)[C@H](O)[C@H]4O)[C@@H](O)[C@H](O)[C@H]3O)CC[C@]3(C)C(=CC[C@@H]4[C@@]5(C)CC[C@H](O[C@@H]6OC[C@H](O)[C@H](O)[C@H]6O)[C@@](C)(CO)[C@@H]5CC[C@]43C)[C@@H]2C1 [Asperosaponin VI]
[1]
  Percentage of motility inhibition 0 h: 0%
[2]
  Percentage of motility inhibition 24 h: 2%

## CC(C)(O)[C@@H]1CC[C@](C)([C@H]2[C@@H](O)C[C@@]3(C)[C@@H]4C[C@H](O)[C@H]5C(C)(C)[C@@H](O[C@@H]6OC[C@@H](O)[C@H](O)[C@H]6O[C@@H]6O[C@H](CO)[C@@H](O)[C@H](O)[C@H]6O)CC[C@@]56C[C@@]46CC[C@]23C)O1 [Astragaloside III]
[1]
  Percentage of motility inhibition 0 h: 0%
[2]
  Percentage of motility inhibition 24 h: 35%

## CC(=O)O[C@H]1[C@H](O[C@H]2CC[C@]34C[C@]35CC[C@]3(C)[C@@H]([C@@]6(C)CC[C@@H](C(C)(C)O)O6)[C@@H](O)C[C@@]3(C)[C@@H]5C[C@H](O[C@@H]3O[C@H](CO)[C@@H](O)[C@H](O)[C@H]3O)[C@H]4C2(C)C)OC[C@@H](O)[C@@H]1O [Astragaloside II]
[1]
  Percentage of motility inhibition 0 h: 5%
[2]
  Percentage of motility inhibition 24 h: 45%

## CC(C)(O)[C@@H]1CC[C@](C)([C@H]2[C@@H](O)C[C@@]3(C)[C@@H]4C[C@H](O[C@@H]5O[C@H](CO)[C@@H](O)[C@H](O)[C@H]5O)[C@H]5C(C)(C)[C@@H](O[C@@H]6OC[C@@H](O)[C@H](O)[C@H]6O)CC[C@@]56C[C@@]46CC[C@]23C)O1 [Astragaloside IV]
[1]
  Percentage of motility inhibition 0 h: 10%
[2]
  Percentage of motility inhibition 24 h: 0%

## CC(C)(O)[C@@H]1CC[C@](C)([C@H]2[C@@H](O)C[C@@]3(C)[C@@H]4C[C@H](O[C@@H]5O[C@H](CO)[C@@H](O)[C@H](O)[C@H]5O)[C@H]5C(C)(C)[C@@H](O[C@@H]6OC[C@@H](O)[C@H](O)[C@H]6O[C@@H]6O[C@H](CO)[C@@H](O)[C@H](O)[C@H]6O)CC[C@@]56C[C@@]46CC[C@]23C)O1 [Astragaloside VI]
[1]
  Percentage of motility inhibition 0 h: 3%
[2]
  Percentage of motility inhibition 24 h: 0%

## CC(C)(O)[C@@H]1CC[C@](C)([C@H]2[C@@H](O)C[C@@]3(C)[C@@H]4C[C@H](O)[C@H]5C(C)(C)[C@@H](O)CC[C@]5(C)C4=CC[C@]23C)O1 [Astragenol]
[1]
  Percentage of motility inhibition 0 h: 50%
[2]
  Percentage of motility inhibition 24 h: 50%

## COC(=O)N[C@H](C(=O)N[C@@H](Cc1ccccc1)[C@@H](O)CN(Cc1ccc(-c2ccccn2)cc1)NC(=O)[C@@H](NC(=O)OC)C(C)(C)C)C(C)(C)C.O=S(=O)(O)O [Atazanavir (sulfate)]
[1]
  Percentage of motility inhibition 0 h: 3%
[2]
  Percentage of motility inhibition 24 h: 4%

## C=C1[C@@H]2CCC3[C@@](CC[C@@H]4[C@H](C(=O)O)C[C@@H](O[C@@H]5O[C@H](CO)[C@@H](OS(=O)(=O)[O-])[C@H](OS(=O)(=O)[O-])[C@H]5OC(=O)CC(C)C)C[C@@]34C)(C2)[C@@H]1O.[K+].[K+] (stereo partly shown) [Atractyloside (potassium salt)]
[1]
  Percentage of motility inhibition 0 h: 29%
[2]
  Percentage of motility inhibition 24 h: 45%

## CC(C)(O[C@@H]1O[C@H](CO)[C@@H](O)[C@H](O)[C@H]1O)[C@@H]1CC[C@](O)(CO)[C@H]2CC(=O)[C@@](C)(O)[C@@H]2C1 [Atractyloside A]
[1]
  Percentage of motility inhibition 0 h: 13%
[2]
  Percentage of motility inhibition 24 h: 28%

## CN1[C@@H]2CC[C@H]1C[C@@H](OC(=O)C(CO)c1ccccc1)C2 (stereo partly shown) [Atropine]
110 µM
  Percentage of motility inhibition 0 h: 3% and 0%
  Percentage of motility inhibition 24 h: 3% and 8%

## O=C(N[C@@H](Cc1ccccc1)C(=O)N[C@H](CO)Cc1ccccc1)c1ccccc1 [Aurantiamide]
[1]
  Percentage of motility inhibition 0 h: 0%
[2]
  Percentage of motility inhibition 24 h: 15%

## NC(=O)[C@@H]1CC[C@@H]2CN1C(=O)N2OS(=O)(=O)[O-].[Na+] [Avibactam (sodium hydrate)]
[1]
  Percentage of motility inhibition 0 h: 37%
[2]
  Percentage of motility inhibition 24 h: 3%

## NC(=O)[C@@H]1CC[C@@H]2CN1C(=O)N2OS(=O)(=O)[O-].[Na+] [Avibactam (sodium)]
[1]
  Percentage of motility inhibition 0 h: 0%
[2]
  Percentage of motility inhibition 24 h: 8%

## CC[C@H]1OC(=O)[C@H](C)[C@@H](O[C@H]2C[C@@](C)(OC)[C@@H](O)[C@H](C)O2)[C@H](C)[C@@H](O[C@@H]2O[C@H](C)C[C@H](N(C)C)[C@H]2O)[C@](C)(O)C[C@@H](C)CN[C@H](C)[C@@H](O)[C@]1(C)O [Azathramycin]
[1]
  Percentage of motility inhibition 0 h: 11%
[2]
  Percentage of motility inhibition 24 h: 10%

## CC1(C)S[C@@H]2[C@H](NC(=O)[C@H](NC(=O)N3CCNC3=O)c3ccccc3)C(=O)N2[C@H]1C(=O)[O-].[Na+] [Azlocillin (sodium salt)]
[1]
  Percentage of motility inhibition 0 h: 31%
[2]
  Percentage of motility inhibition 24 h: 0%

## Cc1nc(N(C)C(=O)Cc2ccc(-c3ccccn3)cc2)sc1S(N)(=O)=O [BAY 57‐1293]
[1]
  Percentage of motility inhibition 0 h: 36%
[2]
  Percentage of motility inhibition 24 h: 0%

## COc1ccnc2[nH]cc(C(=O)C(=O)N3CCN(C(=O)c4ccccc4)C[C@H]3C)c12 [BMS‐378806]
[1]
  Percentage of motility inhibition 0 h: 47%
[2]
  Percentage of motility inhibition 24 h: 41%

## CC(C)=C[C@@H]1CO[C@]23C[C@]4(CO2)[C@H](CC[C@@H]2[C@@]5(C)CC[C@H](O[C@@H]6OC[C@H](O)[C@H](O[C@@H]7O[C@H](CO)[C@@H](O)[C@H](O)[C@H]7O)[C@H]6O[C@@H]6O[C@@H](CO)[C@H](O)[C@H]6O)C(C)(C)[C@@H]5CC[C@]24C)[C@H]3[C@@]1(C)O [Bacopasaponin C]
[1]
  Percentage of motility inhibition 0 h: 6%
[2]
  Percentage of motility inhibition 24 h: 40%
